Article PMC3479356 (ChemMedChem, 2012)
Like-named read-outs stand apart in the source and are kept apart here. Each block holds one molecule with its values, some of them ahead of it.

Assays:
[1] = target: T1, recombinant human RXR receptor (Homo sapiens, UniProt P19793); assay: RXR mammalian two-hybrid assay
T1 sequence (P19793 1-462) 1: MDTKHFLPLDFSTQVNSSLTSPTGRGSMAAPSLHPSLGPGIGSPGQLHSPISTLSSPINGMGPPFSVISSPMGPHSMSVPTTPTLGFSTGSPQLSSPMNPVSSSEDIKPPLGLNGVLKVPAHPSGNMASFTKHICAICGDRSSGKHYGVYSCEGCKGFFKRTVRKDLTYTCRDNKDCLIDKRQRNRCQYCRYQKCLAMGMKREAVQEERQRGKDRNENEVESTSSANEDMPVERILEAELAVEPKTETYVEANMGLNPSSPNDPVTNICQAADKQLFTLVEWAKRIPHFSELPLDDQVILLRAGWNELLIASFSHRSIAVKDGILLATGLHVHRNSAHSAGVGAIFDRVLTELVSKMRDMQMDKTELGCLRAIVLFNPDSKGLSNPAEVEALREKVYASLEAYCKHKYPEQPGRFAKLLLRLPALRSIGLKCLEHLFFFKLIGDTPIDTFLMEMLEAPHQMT
T1 sequence (P19793 1-462) 2: T1 sequence (P19793 1-462) 1

human RXRα = target: T2, human RXRα (Homo sapiens, UniProt P19793); assay: RXRE-mediated transcription assay; type: cell-based; settings: 10^−7 M, 24 h
T2 sequence (P19793 1-462): T1 sequence (P19793 1-462) 1

RXR = settings: Caco-2 colon cancer cells; cited from earlier work

- EC50 [1]: 150 nM
SMILES: C=C(c1ccc(C(=O)O)c(Br)c1)c1cc2c(cc1C)C(C)(C)CCC2(C)C [Analog 14, 2-Bromo-4-(1-(1,2,3,4-tetrahydro-1,1,4,4,6-pentamethylnaphthalen-7-yl)vinyl)benzoic acid]

- EC50 [1]: 90 nM
SMILES: C=C(c1ccc(C(=O)O)c(Cl)c1)c1cc2c(cc1C)C(C)(C)CCC2(C)C [Analog 12, 2-Chloro-4-(1-(1,2,3,4-tetrahydro-1,1,4,4,6-pentamethylnaphthalen-7-yl)vinyl)benzoic acid]

SMILES: Cc1cc2c(cc1C(=O)c1ccc(C(=O)O)c(I)c1)C(C)(C)CCC2(C)C [Compound 17, 2-Iodo-4-(1-(3,5,5,8,8-pentamethyl-5,6,7,8-tetrahydronaphthalen-2-yl)carbonyl)benzoic acid]
- RXR homodimer-mediated transcription compared with ethanol vehicle (human RXRα; Caco-2 cells): not able to activate transcription
- RXR homodimer-mediated transcription compared with ethanol vehicle (human RXRα; HCT-116 cells): significant activity

SMILES: Cc1cc2c(cc1C(=O)c1cc(F)c(C(=O)O)c(F)c1)C(C)(C)CCC2(C)C [Analog 19, 2,6-Difluoro-4-(1-(3,5,5,8,8-pentamethyl-5,6,7,8-tetrahydronaphthalen-2-yl)carbonyl)benzoic acid]
- EC50 ([1]; read-out: EC50 value, transfected HCT-116 cells, full dose-response curves 10^−10 to 10^−5 M, ± S.D.): 550 nM

- EC50 [1]: 280 nM
- RXR binding and homodimerization, % of the parent compound 1 efficiency ([1]; 10^−7 M, 24 h, independent of the cell line (Caco-2 and HCT-116)): ~20%
SMILES: C=C(c1ccc(C(=O)O)c(I)c1)c1cc2c(cc1C)C(C)(C)CCC2(C)C [Analog 16, 2-Iodo-4-(1-(1,2,3,4-tetrahydro-1,1,4,4,6-pentamethylnaphthalen-7-yl)vinyl)benzoic acid]

SMILES: C=C(c1cc(F)c(C(=O)O)c(F)c1)c1cc2c(cc1C)C(C)(C)CCC2(C)C [Analog 18, 2,6-difluoro-4-(1-(1,2,3,4-tetrahydro-1,1,4,4,6-pentamethylnaphthalen-7-yl)vinyl)benzoic acid]
- RXR homodimer-mediated transcription compared with ethanol vehicle (human RXRα; Caco-2 and HCT-116 cells): significantly better than that of the ethanol vehicle

SMILES: C=C(c1ccc(C(=O)O)c(F)c1)c1cc2c(cc1C)C(C)(C)CCC2(C)C [Compound 11, 2-fluoro-4-(1-(1,2,3,4-tetrahydro-1,1,4,4,6-pentamethylnaphthalen-7-yl)vinyl)benzoic acid]
- RXR activation compared with 1 (RXR): slightly higher RXR activation
